Results on five molecules are retold here after ChEMBL document CHEMBL1201862, “PubChem BioAssay data set” (2004).

Some test systems named below: 786-0; BT-549; COLO 205; HCT-15; HL-60; Hs-578T; K562; MCF7; NCI-H460; NCI/ADR-RES; OVCAR-4; PC-3; SF-295; SF-539; SK-MEL-2; TK-10; UO-31.
Holding throughout (assay): inhibition of tumour cell growth, NCI panel, 48 h

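Cultured in 96-well plates, cells were exposed to test compound for 48 hours across five concentrations. GI50 is the concentration that inhibits growth by half.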 Activity calls are given as the source filed them. Cut-off read from the data, not from the text of the source: active = GI50 up to about 1.1 µM and inactive = higher. Some results are limits rather than exact numbers.

`COc1ccc2/c(=C/c3ccc(N(C)C)cc3)c3cc(-c4ccccc4)[n+](C)n3c2c1`: the GI50 in the experiment with 786-0 is 0.161 µM (active); in the experiment on BT-549 it was 0.0957 µM (active); in the experiment with COLO 205, 0.0264 µM (active); in the experiment on HCT-15, 1 µM; with HL-60 it was 0.0218 µM (active); in the experiment with Hs-578T it was 0.142 µM (active). Further, the GI50 is 0.057 µM (active) in the experiment with K562; 0.126 µM (active) in the experiment with MCF7; 0.245 µM (active) in the experiment on NCI-H460; 9.66 µM (inactive) in the experiment with NCI/ADR-RES; 0.347 µM (active) in the experiment on OVCAR-4; 0.09 µM (active) with PC-3. Also, the GI50 was 0.194 µM (active) in the experiment with SF-295; 0.495 µM (active) with SF-539; 0.18 µM (active) in the experiment with SK-MEL-2; 0.239 µM (active) in the experiment with TK-10; 0.735 µM (active) with UO-31.
For the molecule `NC1CSc2ccccc2NC1=O` (stereo not given), the GI50 in the experiment with 786-0 is > 100 µM (inactive); in the experiment on BT-549 it was > 100 µM (inactive); in the experiment with COLO 205, > 100 µM (inactive); in the experiment on HCT-15 it was > 100 µM; in the experiment on HL-60, > 100 µM (inactive); in the experiment on Hs-578T it was > 100 µM (inactive). In addition, the GI50 with K562, with MCF7, in the experiment with NCI-H460, in the experiment on NCI/ADR-RES, in the experiment on OVCAR-4 and in the experiment on PC-3 was > 100 µM (inactive) each time. The GI50 in the experiment with SF-295, in the experiment on SF-539, in the experiment with SK-MEL-2, in the experiment with TK-10 and in the experiment with UO-31 was > 100 µM (inactive) each time.
`CCOc1ccc(C2c3[nH]c4ccccc4c3CCN2C(=O)c2cccs2)cc1` (stereo not given): the GI50 is 9.18 µM (inactive) with 786-0; 61.9 µM (inactive) in the experiment on BT-549; 8.47 µM (inactive) with COLO 205; 1.74 µM with HCT-15; 9.04 µM (inactive) in the experiment on HL-60; 63.1 µM (inactive) with Hs-578T. Moreover, the GI50 with K562 was 2.34 µM (inactive); in the experiment with MCF7, 7.6 µM (inactive); in the experiment with NCI-H460 it was 2.2 µM (inactive); in the experiment on NCI/ADR-RES, 6.43 µM (inactive); in the experiment with OVCAR-4, 4.22 µM (inactive); with PC-3 it was 4.59 µM (inactive). Besides, the GI50 in the experiment with SF-295 was 6.03 µM (inactive); with SF-539, 3.51 µM (inactive); in the experiment on SK-MEL-2, 78.3 µM (inactive); in the experiment on TK-10 it was > 100 µM (inactive); with UO-31 it was 14.2 µM (inactive).
Regarding `Cc1cn(CCOCCOC(=O)NC(CCCNC(N)=O)C(=O)O)c(=O)[nH]c1=O` (stereo not given), the GI50 is > 100 µM (inactive) in the experiment with 786-0; > 100 µM (inactive) with BT-549; > 100 µM (inactive) in the experiment on COLO 205; > 100 µM in the experiment with HCT-15; > 100 µM (inactive) in the experiment on HL-60; > 100 µM (inactive) in the experiment on Hs-578T. The GI50 in the experiment with K562, with MCF7, with NCI-H460, with NCI/ADR-RES, in the experiment with OVCAR-4 and in the experiment on PC-3 was > 100 µM (inactive) each time. The GI50 in the experiment with SF-295, with SF-539, with SK-MEL-2, with TK-10 and in the experiment with UO-31 was > 100 µM (inactive) in each case.
In the case of `CCOC(=O)C1=C(C)NC(=S)NC1c1cccc(O)c1` (stereo not given) [MONASTROL], the GI50 in the experiment on 786-0 is 57.9 µM (inactive); in the experiment with BT-549, 56.6 µM (inactive); with COLO 205 it was 31.6 µM (inactive); in the experiment on HCT-15, 39.4 µM; in the experiment on HL-60, 25.7 µM (inactive); in the experiment on Hs-578T, 45.7 µM (inactive). Besides, the GI50 was 32.7 µM (inactive) with K562; 30 µM (inactive) in the experiment on MCF7; 39.8 µM (inactive) with NCI-H460; > 100 µM (inactive) with NCI/ADR-RES; 66.1 µM (inactive) in the experiment on OVCAR-4; 36.1 µM (inactive) with PC-3. Moreover, the GI50 in the experiment with SF-295 was 30.5 µM (inactive); in the experiment on SF-539, 44.8 µM (inactive); with SK-MEL-2 it was 32.4 µM (inactive); in the experiment with TK-10 it was > 100 µM (inactive); in the experiment on UO-31, > 100 µM (inactive).
